Source: PMC5929447 (Oncotarget, 2018)
pEC50, pIC50: −log10 of the molar value. Like-named read-outs stand apart in the source and are kept apart here.

Legend:
platelets = experiment: Platelet counts in RS4;11-bearing mice; format: in vivo; conditions: 25 and 100 mg/kg single oral dose, 16 h post dosing
Procedure: (§1) When tumors reached approximately 200 mm^3 for efficacy studies or 300 mm^3 for pharmacodynamic studies, mice were randomized. […] Mice were treated via oral gavage at 10 ml/kg with the doses and schedules described in the figure.
For pharmacodynamic studies, blood and tumors were removed 16 h post dosing and immediately snap-frozen. Total proteins were extracted from the tumors and caspase-3 activity was assessed in triplicate using CaspACE® Assay System (Promega). Platelet cell counts were determined 16 hours post dosing using Coulter AcT diff (Beckman).

Toledo xenograft = Toledo xenograft efficacy; format: in vivo, mice; conditions: day 21; for Mean TV change: mean ± s.e.m.
Procedure: Experiments were performed in SCID/beige female mice from Charles River Laboratories, Massachusetts, USA. Animals, approximately 7-8 weeks of age at the start of the treatment were allowed to acclimate in animal facility with access to food and water ad libitum for 3 days prior to manipulation. Animals were handled in accordance with IACUC regulations and guidelines for experiments performed in the USA and with European and French regulation for the protection of vertebrate animals for experiments performed in France. Animal well-being and behavior, including grooming and ambulation were monitored at least once a day. General health of mice was monitored and mortality recorded daily. Any moribund animals were sacrificed.
RS4;11 Acute Lymphoblastic Leukemia cell lines was obtained from ATCC. Toledo (Diffuse Large B-Cell Lymphoma) human cell lines were obtained internally through Bioresources and the Novartis-Cancer Cell Line Encyclopedia. Cells were free of Mycoplasma and murine viral contamination in the IMPACT VIII PCR assay panel (IDEXX RADIL, IDEXX laboratories INC, Westbrook, ME, USA). Cells used for subcutaneous implantation were cultured in RPMI plus 10% FBS at 37° C in a humidified atmosphere containing 5% carbon dioxide). […] Cells were resuspended in a 1:1 mixture of cold DPBS (Dulbecco's Phosphate-Buffered Saline) and Matrigel™ (Becton-Dickinson #354234) at a concentration of 3 × 10^7 cells/ml for Toledo cells, and of 1 × 10^7 cells/ml for RS4;11 cells.
(§2) For each experiment, female SCID/beige mice were implanted subcutaneously (right axillary region) with 3 × 10^6 Toledo or RS4;11 (1 × 10^6 cells for efficacy studies and 1 × 10^7 cells for pharmacodynamics studies) suspended in 1:1 mixture of cold DPBS and Matrigel™ in a total volume of 100 μl. Body weights were recorded and tumors were measured with digital calipers twice to three times a week. Tumor volume was calculated using the formula: length × width^2/2. Percent changes in body weights was calculated as (BWcurrent - BWinitial)/(BWinitial) × 100. Data is presented as percent body weight change from the day of treatment initiation.
as §1
For efficacy studies, percent treatment/control (T/C) values were calculated using the following formula: %T/C = 100 × ΔT/ΔC if ΔT > 0. Regression = 100 × ΔT/Tinitial if ΔT < 0 where: T = mean tumor burden of the drug-treated group on the final day of the study; ΔT = mean tumor burden of the drug-treated group on the final day of the study – mean tumor burden of the drug-treated group on initial day of dosing; Tinitial = mean tumor burden of the drug-treated group on initial day of dosing; C = mean tumor burden of the control group on the final day of the study; and ΔC = mean tumor burden of the control group on the final day of the study – mean tumor burden of the control group on initial day of dosing. If the tumor volume was less than 14 mm^3 for more than 3 consecutive measurements, animals were considered in complete regression (CR).

H146 cell line = experiment: CellTiter-Glo cell viability, H146; format: cell-based; conditions: Homo sapiens, NCI-H146; 72 h of treatment
Procedure: (§3) Cells were seeded into 96-well plates and treated at 8 points with 1:2 serial dilution of compounds. Cell viability was assessed and assayed for viability using CellTiter-Glo reagent (Promega) following the manufacturer's instructions. Plates were read using Tecan luminescence plate reader. Results were normalized to the viability of cells without compounds (control wells). The IC50 values were calculated using nonlinear regression algorithms in XCell software.

[1] = test system: BCL-2-dependent FL5.12 cells; experiment: Apoptosis (annexin V/PI) in FL5.12 cells expressing BCL-2 upon IL-3 withdrawal; format: cell-based, murine; conditions: 24 h upon IL-3 withdrawal
RS4;11 cell line = experiment: CellTiter-Glo cell viability, RS4;11; format: cell-based; conditions: Homo sapiens, 72 h of treatment
Procedure: as §3

[2] = test system: primary Chronic Lymphocytic Leukemia cells; experiment: Apoptosis (annexin V/PI flow cytometry) in primary CLL cells; format: cell-based; conditions: Homo sapiens, CLL cell, 4 h
Procedure: Peripheral blood samples from CLL patients were obtained with informed patient consent and local ethical committee approval (UHL-09723). […] Interphase fluorescence in situ hybridization (FISH) was performed for detection of 17p13 deletion. Mantle cell lymphoma (MCL) primary cells were obtained after informed consent from MCL patients treated at the department of clinical hematology from the University Hospital of Nantes, France. Peripheral MCL cells from blood or pleural effusion, were purified after Ficoll-Hypaque separation with immuno-magnetic anti-CD19 beads (Miltenyi, Paris, France). Primary cells were cultured in RPMI-1640 supplemented with 10% FCS and 2 mM glutamine. Human platelets were isolated from citrate blood donated by healthy volunteers. Washed platelets were cultured in Hepes-buffered saline (HBS, 10 mM Hepes, 150 mM NaCl, 5 mM KCl, 1 mM MgSO4, pH 7.4). […] EC50 values were calculated using GraphPadPrism (non-linear fit, sigmoidal dose response, variable slope). […] Cell death was assessed in the CD19+ primary MCL cells by annexinV-FITC staining combined with an analysis of altered cellular morphology (lower FCS). Fluorescence was analyzed on FACSCalibur.

[3] = Body weight in Toledo-bearing mice; format: in vivo; conditions: doses up to 300 mg/kg, oral five times a week for 3 weeks
Procedure: as §2

BCL-2/BAX complex = BCL-2/BAX complex (Homo sapiens, UniProt P10415); experiment: Co-immunoprecipitation in RS4;11 cells; format: cell-based; conditions: 2 h, increasing concentrations
[4] = test system: Mantle Cell Lymphoma cell lines; experiment: CellTiter-Glo viability, MCL cell line panel; format: cell-based; conditions: 72 h; two MCL cell lines out of five tested
Procedure: as §3

[5] = 200 mg/kg oral five times a week for 3 weeks
[6] = 300 mg/kg oral five times a week for 3 weeks

Chain of BCL-2/BAX complex (P10415 whole entry, one chain of several): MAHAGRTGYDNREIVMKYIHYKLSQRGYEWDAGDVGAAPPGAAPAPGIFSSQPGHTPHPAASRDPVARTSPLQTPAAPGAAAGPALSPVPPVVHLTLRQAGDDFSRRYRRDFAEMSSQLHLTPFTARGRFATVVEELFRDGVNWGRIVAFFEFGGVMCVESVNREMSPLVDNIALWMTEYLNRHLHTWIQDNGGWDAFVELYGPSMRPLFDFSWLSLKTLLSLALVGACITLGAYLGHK

O=C(c1cc(-c2cc3c(cc2C(=O)N2Cc4ccccc4C[C@H]2CN2CCOCC2)OCO3)n2c1CCCC2)N(c1ccccc1)c1ccc(O)cc1 [S55746]
platelet counts in vivo (platelets): did not induce platelet loss | % T/C (Toledo xenograft; [5]): 13 % T/C | Mean TV change (Toledo xenograft; [5]): 239.03 ± 67.97 mm3 | % T/C (Toledo xenograft; [6]): 2 % T/C | Mean TV change (Toledo xenograft; [6]): 33.16 ± 37.38 mm3 | pIC50 (H146 cell line): 5.77 | apoptosis induction (PS+ cells) in BCL-2-dependent FL5.12 cells [1]: strongly induce apoptosis | pIC50 (RS4;11 cell line): 7.15 | pEC50 ([2]; 7 patients, 4 hours of treatment, read-out: EC50 apoptosis in primary CLL cells, range over patients): 7.33 to 8.36 | pEC50 ([2]; read-out: EC50 S55746 primary CLL cells, patient CLL1, p17 del No, 4 h): 7.33 | pEC50 ([2]; read-out: EC50 S55746 primary CLL cells, patient CLL2, p17 del No, 4 h): 7.86 | pEC50 ([2]; read-out: EC50 S55746 primary CLL cells, patient CLL3, p17 del Yes, 4 h): 7.86 | pEC50 ([2]; read-out: EC50 S55746 primary CLL cells, patient CLL4, p17 del No, 4 h): 7.92 | pEC50 ([2]; read-out: EC50 S55746 primary CLL cells, patient CLL5, p17 del No, 4 h): 8.00 | pEC50 ([2]; read-out: EC50 S55746 primary CLL cells, patient CLL6, p17 del Yes, 4 h): 8.11 | pEC50 ([2]; read-out: EC50 S55746 primary CLL cells, patient CLL7, p17 del No, 4 h): 8.36 | body weight compared to the vehicle control group [3]: did not significantly differ | disruption of the BCL-2/BAX complex in RS4;11 cells (BCL-2/BAX complex): concentration-dependent disruption of the BCL-2/BAX complex | pIC50 [4]: > 6.00
